{"source": "ChEMBL document CHEMBL5335772", "about": "“EGCG adjuvant chemotherapy: Current status and future perspectives” (Eur J Med Chem, 2023)", "key": {"[1]": {"system": "BEL-7404 tumor cell line", "assay": "Antiproliferative activity against human BEL-7404 tumor cell line assessed as inhibition of cell proliferation incubated for 72 hrs by MTT assay", "assay_type": "functional, cell-based", "conditions": "BEL-7404, 72 h"}, "[2]": {"system": "ADR5000 cell line", "assay": "Antiproliferative activity against human CEM/ADR5000 cells assessed as reduction in cell viability incubated for 48 hrs by MTT assay", "assay_type": "functional, cell-based", "conditions": "ADR5000, 48 h"}, "[3]": {"system": "BEL-7404 tumor cell line", "assay": "Induction of apoptosis in human BEL-7404 tumor cell line in presence of EGCG at 30.5 uM", "assay_type": "functional, cell-based"}, "[4]": {"system": "ADR5000 cell line", "assay": "Induction of apoptosis in human CEM/ADR5000 cells in presence of EGCG at 20 uM", "assay_type": "functional, cell-based"}, "[5]": {"system": "DLD-1", "assay": "Antiproliferative activity against human DLD-1 cells assessed as reduction in cell growth incubated for 24 hrs by MTT assay", "assay_type": "functional, cell-based", "conditions": "DLD-1, 24 h"}, "[6]": {"system": "DLD-1", "assay": "Induction of apoptosis in human DLD-1 cells in presence of EGCG at 50 uM", "assay_type": "functional, cell-based"}, "[7]": {"system": "MCF7", "assay": "Induction of apoptosis in human MCF7 cells in presence of EGCG at 50 uM"}}}
{"smiles": "COc1cccc2c1C(=O)c1c(O)c3c(c(O)c1C2=O)C[C@@](O)(C(=O)CO)C[C@@H]3O[C@H]1C[C@H](N)[C@H](O)[C@H](C)O1", "note": "[DOXORUBICIN]", "values": [{"measurement": "IC50", "setting": "[1]", "result": 1.62, "unit": "µM"}, {"measurement": "IC50", "setting": "[2]", "result": 88.9, "unit": "µM"}, {"measurement": "IC50", "setting": "[3]", "result": 3.28, "unit": "µM"}, {"measurement": "IC50", "setting": "[4]", "result": 29.9, "unit": "µM"}]}
{"smiles": "O=c1[nH]cc(F)c(=O)[nH]1", "note": "[FLUOROURACIL]", "values": [{"measurement": "IC50", "setting": "[5]", "result": 150, "unit": "µM"}, {"measurement": "IC50", "setting": "[6]", "result": 11, "unit": "µM"}]}
{"smiles": "CC/C(=C(\\c1ccccc1)c1ccc(OCCN(C)C)cc1)c1ccccc1", "note": "[TAMOXIFEN]", "values": [{"measurement": "IC50", "setting": "[7]", "result": 5.8, "unit": "µM"}]}
